# Experimental data: patent US9844536B2, “3-(1H-imidazo[4,5-C]pyridin-2-yl)-1H-pyrazolo[3,4-C]pyridine and therapeutic uses thereof” (Samumed, LLC, priority 2014, dated 2017)
# How the values were obtained:
# [1] = system: Wnt pathway (Sp5-Luc reporter, SW480 cells); assay: Sp5-Luc reporter gene screening assay for Wnt activity in SW480 colon carcinoma cells; type: cell-based; conditions: Homo sapiens
# Procedure, shortened: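 IC50 values come from variable-slope four-parameter fits of luciferase signal normalized to DMSO wells. Stable Sp5-Luc reporter SW480 colon carcinoma cells were exposed to compounds in a 3-fold dilution series (source plates from 10 mM stock) for forty-two hours at 37 °C.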
# [2] = system: LL29 cells; assay: Inhibition of the fibrotic process (αSMA staining) in TGF-β1 treated primary human fibroblasts from IPF patients; type: cell-based; conditions: Fibroblast, 96 h, TGF-β1 20 ng/mL, 4 days, dose-response 10 μM to 1.87 nM, read-out: Inhibition of fibrosis EC50
# Source text: The above synthesized compounds were screened using primary human fibroblasts (derived from IPF patients) treated with TGF-β1 to determine their ability to inhibit the fibrotic process.
# Primary human fibroblasts derived from IPF patients (LL29 cells) [^1Xiaoqiu Liu, et. al., “Fibrotic Lung Fibroblasts Show Blunted Inhibition by cAMP Due to Deficient cAMP Response Element-Binding Protein Phosphorylation”, Journal of Pharmacology and Experimental Therapeutics (2005), 315(2), 678-687; ^2Watts, K. L., et. al., “RhoA signaling modulates cyclin D1 expression in human lung fibroblasts; implications for idiopathic pulmonary fibrosis”, Respiratory Research (2006), 7(1), 88] were obtained from American Type Culture Collection (ATCC) and expanded in F12 medium supplemented with 15% Fetal Bovine Serum and Penicillin/Streptomycin.
# Each compound was dissolved in DMSO as a 10 mM stock and used to prepare compound source plates. Serial dilution (1:2, 11-point dose-response curves from 10 μM to 1.87 nM) and compound transfer was performed using the ECHO 550 (Labcyte, Sunnyvale, Calif.) into 384-well clear bottom assay plates (Greiner Bio-One) with appropriate DMSO backfill for a final DMSO concentration of 0.1%. LL29 cells were plated at 1,500 cells/well in 80 μl/well F12 medium supplemented with 1% Fetal Bovine Serum. One hour after addition of the cells, TGF-β1 (Peprotech; 20 ng/mL) was added to the plates to induce fibrosis (ref. 1 and 2 above). Wells treated with TGF-β1 and containing DMSO were used as controls. Cells were incubated at 37° C. and 5% CO2 for 4 days. Following incubation for 4 days, SYTOX green nucleic acid stain (Life Technologies [Thermo Fisher Scientific]) was added to the wells at a final concentration of 1 uM and incubated at room temperature for 30 min. Cells were then fixed using 4% formaldehyde (Electron Microscopy Sciences), washed 3 times with PBS followed by blocking and permeabilization using 3% Bovine Serum Albumin (BSA; Sigma) and 0.3% Triton X-100 (Sigma) in PBS. Cells were then stained with antibody specific to α-smooth muscle actin (αSMA; Abcam) (ref. 1 and 2 above) in 3% Bovine Serum Albumin (BSA; Sigma) and 0.3% Triton X-100 (Sigma) in PBS, and incubated overnight at 4° C. Cells were then washed 3 times with PBS, followed by incubation with Alexa Flor-647 conjugated secondary antibody (Life Technologies [Thermo Fisher Scientific]) and DAPI at room temperature for 1 hour. Cells were then washed 3 times with PBS and plates were sealed for imaging. αSMA staining was imaged by excitation at 630 nm and emission at 665 nm and quantified using the Compartmental Analysis program on the CellInsight CX5 (Thermo Scientific). Dead or apoptotic cells were excluded from analysis based on positive SYTOX green staining. % of total cells positive for αSMA were counted in each well and normalized to the average of 11 wells treated with TGF-31 on the same plate using Dotmatics' Studies Software. The normalized averages (fold change over untreated) of 3 replicate wells for each compound concentration were used to create dose-responses curves and EC50 values were calculated using non-linear regression curve fit in the Dotmatics' Studies Software. The EC50 values are reported.
IC50 [1] [nM],SMILES,EC50 [2] [nM]
189,"O=C(Nc1cncc(-c2cc3c(-c4nc5c(-c6ccsc6)nccc5[nH]4)n[nH]c3cn2)c1)c1ccccc1 [Compound 271, N-(5-(3-(4-(Thiophen-3-yl)-1H-imidazo[4,5-c]pyridin-2-yl)-1H-pyrazolo[3,4-c]pyridin-5-yl)pyridin-3-yl)benzamide]",≤ 9
> 10000,"CC(C)C(=O)Nc1cncc(-c2cc3c(-c4nc5c(-c6cccnc6)nccc5[nH]4)n[nH]c3cn2)c1 [Compound 87, N-(5-(3-(4-(Pyridin-3-yl)-1H-imidazo[4,5-c]pyridin-2-yl)-1H-pyrazolo[3,4-c]pyridin-5-yl)pyridin-3-yl)isobutyramide]",≥ 9990
192,"CC(C)C(=O)Nc1cncc(-c2cc3c(-c4nc5c(-c6ccccc6F)nccc5[nH]4)n[nH]c3cn2)c1 [Compound 61, N-(5-(3-(4-(2-Fluorophenyl)-1H-imidazo[4,5-c]pyridin-2-yl)-1H-pyrazolo[3,4-c]pyridin-5-yl)pyridin-3-yl)isobutyramide]",153
28,"Oc1cncc(-c2cc3c(-c4nc5c(-c6cccc(F)c6)nccc5[nH]4)n[nH]c3cn2)c1 [Compound 949, 5-(3-(4-(3-Fluorophenyl)-1H-imidazo[4,5-c]pyridin-2-yl)-1H-pyrazolo[3,4-c]pyridin-5-yl)pyridin-3-ol]",≥ 9990
> 10000,"CS(=O)(=O)NCc1cc(F)cc(-c2nccc3[nH]c(-c4n[nH]c5cnc(-c6cncc(NC(=O)c7ccccc7)c6)cc45)nc23)c1 [Compound 427, N-(5-(3-(4-(3-Fluoro-5-(methylsulfonamidomethyl)phenyl)-1H-imidazo[4,5-c]pyridin-2-yl)-1H-pyrazolo[3,4-c]pyridin-5-yl)pyridin-3-yl)benzamide]",≥ 9990
30.8,"Fc1cccc(-c2nccc3[nH]c(-c4n[nH]c5cnc(-c6cncc(CN7CCC(F)(F)C7)c6)cc45)nc23)c1 [Compound 25, 5-(5-((3,3-Difluoropyrrolidin-1-yl)methyl)pyridin-3-yl)-3-(4-(3-fluorophenyl)-1H-imidazo[4,5-c]pyridin-2-yl)-1H-pyrazolo[3,4-c]pyridine]",185
174,"CC(C)CC(=O)Nc1cncc(-c2cc3c(-c4nc5c(-c6ccc(F)cc6)nccc5[nH]4)n[nH]c3cn2)c1 [Compound 28, N-(5-(3-(4-(4-Fluorophenyl)-1H-imidazo[4,5-c]pyridin-2-yl)-1H-pyrazolo[3,4-c]pyridin-5-yl)pyridin-3-yl)-3-methylbutanamide]",553
11.2,"CC(C)Nc1cncc(-c2cc3c(-c4nc5c(-c6cccnc6)nccc5[nH]4)n[nH]c3cn2)c1 [Compound 90, N-Isopropyl-5-(3-(4-(pyridin-3-yl)-1H-imidazo[4,5-c]pyridin-2-yl)-1H-pyrazolo[3,4-c]pyridin-5-yl)pyridin-3-amine]",≤ 9
73.2,"Cc1ccc(-c2nccc3[nH]c(-c4n[nH]c5cnc(-c6cncc(CN7CCCCC7)c6)cc45)nc23)s1 [Compound 379, 3-(4-(5-Methylthiophen-2-yl)-1H-imidazo[4,5-c]pyridin-2-yl)-5-(5-(piperidin-1-ylmethyl)pyridin-3-yl)-1H-pyrazolo[3,4-c]pyridine]",≤ 9
1,"Fc1cccc(-c2nccc3[nH]c(-c4n[nH]c5cnc(-c6cn[nH]c6)cc45)nc23)c1 [Compound 939, 3-(4-(3-Fluorophenyl)-1H-imidazo[4,5-c]pyridin-2-yl)-5-(1H-pyrazol-4-yl)-1H-pyrazolo[3,4-c]pyridine]",≤ 9
166,"Cc1ccc(-c2nccc3[nH]c(-c4n[nH]c5cnc(-c6cncc(NC(=O)C7CCCC7)c6)cc45)nc23)s1 [Compound 385, N-(5-(3-(4-(5-Methylthiophen-2-yl)-1H-imidazo[4,5-c]pyridin-2-yl)-1H-pyrazolo[3,4-c]pyridin-5-yl)pyridin-3-yl)cyclopentanecarboxamide]",≤ 9
> 10000,"CCCC(=O)Nc1cncc(-c2cc3c(-c4nc5c(-c6cc(F)cc(CNS(C)(=O)=O)c6)nccc5[nH]4)n[nH]c3cn2)c1 [Compound 433, N-(5-(3-(4-(3-Fluoro-5-(methylsulfonamidomethyl)phenyl)-1H-imidazo[4,5-c]pyridin-2-yl)-1H-pyrazolo[3,4-c]pyridin-5-yl)pyridin-3-yl)butyramide]",195
198,"CC(C)CC(=O)Nc1cncc(-c2cc3c(-c4nc5c(-c6ccccn6)nccc5[nH]4)n[nH]c3cn2)c1 [Compound 132, 3-Methyl-N-(5-(3-(4-(pyridin-2-yl)-1H-imidazo[4,5-c]pyridin-2-yl)-1H-pyrazolo[3,4-c]pyridin-5-yl)pyridin-3-yl)butanamide]",685
71.5,"O=C(Nc1cncc(-c2cc3c(-c4nc5c(-c6ccccn6)nccc5[nH]4)n[nH]c3cn2)c1)C1CCC1 [Compound 150, N-(5-(3-(4-(Pyridin-2-yl)-1H-imidazo[4,5-c]pyridin-2-yl)-1H-pyrazolo[3,4-c]pyridin-5-yl)pyridin-3-yl)cyclobutanecarboxamide]",1050
144,"CCC(=O)Nc1cncc(-c2cc3c(-c4nc5c(N6CCCCC6)nccc5[nH]4)n[nH]c3cn2)c1 [Compound 157, N-(5-(3-(4-(Piperidin-1-yl)-1H-imidazo[4,5-c]pyridin-2-yl)-1H-pyrazolo[3,4-c]pyridin-5-yl)pyridin-3-yl)propionamide]",347
53.4,"CN(C)c1cncc(-c2cc3c(-c4nc5c(-c6cccs6)nccc5[nH]4)n[nH]c3cn2)c1 [Compound 319, N,N-Dimethyl-5-(3-(4-(thiophen-2-yl)-1H-imidazo[4,5-c]pyridin-2-yl)-1H-pyrazolo[3,4-c]pyridin-5-yl)pyridin-3-amine]",≤ 9
320,"Fc1cccc(-c2nccc3[nH]c(-c4n[nH]c5cnc(-c6ccccn6)cc45)nc23)c1 [Compound 953, 3-(4-(3-Fluorophenyl)-1H-imidazo[4,5-c]pyridin-2-yl)-5-(pyridin-2-yl)-1H-pyrazolo[3,4-c]pyridine]",1940
> 10000,"Fc1ccc(-c2nccc3[nH]c(-c4n[nH]c5cnc(-c6cncc(CN7CCCC7)c6)cc45)nc23)cc1 [Compound 40, 3-(4-(4-Fluorophenyl)-1H-imidazo[4,5-c]pyridin-2-yl)-5-(5-(pyrrolidin-1-ylmethyl)pyridin-3-yl)-1H-pyrazolo[3,4-c]pyridine]",≥ 9990
71.5,"CCCC(=O)Nc1cncc(-c2cc3c(-c4nc5c(-c6ccsc6)nccc5[nH]4)n[nH]c3cn2)c1 [Compound 277, N-(5-(3-(4-(Thiophen-3-yl)-1H-imidazo[4,5-c]pyridin-2-yl)-1H-pyrazolo[3,4-c]pyridin-5-yl)pyridin-3-yl)butyramide]",≤ 9
17.3,"CCCC(=O)Nc1cncc(-c2cc3c(-c4nc5c(-c6cccs6)nccc5[nH]4)n[nH]c3cn2)c1 [Compound 329, N-(5-(3-(4-(Thiophen-2-yl)-1H-imidazo[4,5-c]pyridin-2-yl)-1H-pyrazolo[3,4-c]pyridin-5-yl)pyridin-3-yl)butyramide]",≥ 9990

SMILES,IC50 [1] [nM],EC50 [2] [nM]
"Fc1cccc(-c2nccc3[nH]c(-c4n[nH]c5cnc(C6=CCNCC6)cc45)nc23)c1 [Compound 938, 3-(4-(3-Fluorophenyl)-1H-imidazo[4,5-c]pyridin-2-yl)-5-(1,2,3,6-tetrahydropyridin-4-yl)-1H-pyrazolo[3,4-c]pyridine]",125,198
